Results as given in the NIST ThermoML archive (doi:10.1021/je1011828).

Assays:
[1] = Liquid; for thermal conductivity: 101.33 kPa, Hot wire method; for viscosity / mass density: 101 kPa; for viscosity: Capillary tube (Ostwald / Ubbelohde) method; for mass density: Pycnometric method
[2] = wn = mass fraction of the nth substance listed; conditions: 101 kPa, Liquid; for viscosity: Capillary tube (Ostwald / Ubbelohde) method; for thermal conductivity: Hot wire method; for mass density: Pycnometric method

CCOC(F)(F)C(F)(F)C(F)(F)C(F)(F)F [1-ethoxy-1,1,2,2,3,3,4,4,4-nonafluorobutane]
[1]
Conditions | mass density [kg/m3] | thermal conductivity [W/m/K] | viscosity [mPa·s]
278.8 K | – | 0.0712 | –
297.8 K | 1417 | – | 0.6065
298.2 K | 1417 | 0.0662 | 0.6065
300.6 K | – | 0.0644 | –
314.1 K | – | 0.0616 | –
328.3 K | – | 0.059 | –
344.1 K | – | 0.0563 | –

CCOC(F)(F)C(F)(F)C(F)(F)C(F)(F)F [1-ethoxy-1,1,2,2,3,3,4,4,4-nonafluorobutane] + CCCCOCC
[2], 298.2 K
Conditions | mass density [kg/m3] | thermal conductivity [W/m/K] | viscosity [mPa·s]
w2 = 0 | 1417 | 0.0662 | 0.6065
w2 = 0.1 | 1293.4 | 0.0664 | 0.5458
w2 = 0.2 | 1187.4 | 0.0707 | 0.5042
w2 = 0.4 | 1024.9 | 0.0774 | 0.4379
w2 = 0.6 | 907.4 | 0.0921 | 0.4077
w2 = 0.8 | 813.7 | 0.1085 | 0.397

CCOC(F)(F)C(F)(F)C(F)(F)C(F)(F)F [1-ethoxy-1,1,2,2,3,3,4,4,4-nonafluorobutane] + CO
[2], 297.8 K
Conditions | mass density [kg/m3] | thermal conductivity [W/m/K] | viscosity [mPa·s]
w2 = 0 | 1417 | – | 0.6065
w2 = 0.1 | 1357 | 0.0729 | 0.6034
w2 = 0.2 | 1294.4 | 0.0794 | 0.6802
w2 = 0.4 | 1058.4 | 0.0948 | 0.6089
w2 = 0.6 | 946.5 | 0.1108 | 0.571
w2 = 0.8 | 852.6 | 0.1326 | 0.5495

CCCCOCC [butyl ethyl ether]
[1]
Conditions | mass density [kg/m3] | thermal conductivity [W/m/K] | viscosity [mPa·s]
298.15 K | – | 0.1258 | –
298.2 K | 743 | – | 0.3868
299.62 K | – | 0.125 | –
312.17 K | – | 0.1229 | –
333.39 K | – | 0.1017 | –
354.63 K | – | 0.0949 | –

CCCCOCC [butyl ethyl ether] + CCOC(F)(F)C(F)(F)C(F)(F)C(F)(F)F
[2], 298.2 K, w1 = 1
Conditions | mass density [kg/m3] | thermal conductivity [W/m/K] | viscosity [mPa·s]
– | 743 | 0.1258 | 0.3868

CO [methanol]
[1], 297.8 K
Conditions | mass density [kg/m3] | viscosity [mPa·s]
– | 791.8 | 0.5463

CO [methanol] + CCOC(F)(F)C(F)(F)C(F)(F)C(F)(F)F
[2], 297.8 K, w1 = 1
Conditions | mass density [kg/m3] | viscosity [mPa·s]
– | 791.8 | 0.5463
